From publication PMC7006784, “The combination of salvianolic acid A with latamoxef completely protects mice against lethal pneumonia caused by methicillin-resistant Staphylococcus aureus” (Emerging Microbes & Infections, 2020) come the findings set out here.

Experiment [1] has as its system S. aureus biofilm. As to the kind of experiment: Biofilm formation assay. The experiment is classed as cell-based. The settings on record: Staphylococcus aureus, 18 h, read-out: inhibition of biofilm formation compared with the untreated group. The protocol:
Overnight cultures of S. aureus were diluted 1:100 in BHI media with or without Sal A to an OD600 of 0.6. Then, 5 µl of the bacterial culture was added to 195 µl BHI media with or without Sal A in a 96-well plate. The plate was incubated at 37°C for 18 h to form a biofilm, which was then quantitated as described previously.

In experiment [2] the target is T1, SrtA (Staphylococcus aureus, UniProt Q2FV99).
T1 construct: The gene encoding SrtA (lacking the N-terminal transmembrane domain (N1–59)); made in house
T1 sequence (Q2FV99 60-206): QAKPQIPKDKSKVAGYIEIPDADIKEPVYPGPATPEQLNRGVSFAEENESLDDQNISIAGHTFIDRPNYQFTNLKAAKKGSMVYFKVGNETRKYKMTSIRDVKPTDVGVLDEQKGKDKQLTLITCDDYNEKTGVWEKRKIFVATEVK
As to the kind of experiment: Biolayer interferometry assay. The experiment is classed as binding, S. aureus. The protocol:
The kinetics of the binding of Sal A to SrtA were determined by a biolayer interferometry (BLI) assay using the Octet RED96 system (ForteBio, Inc., Menlo Park, CA) as described previously. Ni-NTA sensors were used to bind the His-tag SrtA protein. The assay buffer used was PBS containing 0.1% bovine serum albumin and 0.02% Tween-20, pH 6.5. Before the assay was performed, the Ni-NTA sensors were pre-wetted in assay buffer for 10 min, and then the Ni-NTA sensors were flushed with buffer for 60 s to generate the baseline. SrtA was immobilized on the surface of the sensor tip by incubating it in […] protein solution for 3600 s. The excess protein was removed by washing the sensor with buffer for 300 s. Subsequently, the sensor was exposed to a cycle of 60 s for the baseline step, 200 s for the association step and 100 s for the dissociation step in different concentrations of Sal A solution (250, 125, 62.5, 31.25 and 15.625 μM). The binding of the sensor to protein without the loading of Sal A served as a control. The data were processed using the double reference subtraction method in Forte Bio analysis software (v6.4).

In experiment [3] the test system is A549 cells. Nature of the experiment: Invasion assay (internalization of S. aureus into A549 cells). The experiment is classed as cell-based. The settings on record: CFU count. The protocol:
The assay of the internalization of S. aureus into A549 cells was performed as described. Briefly, 3 × 10^5 A549 cells were plated in each well of a 24-well plate and incubated at 37°C in 5% CO2 for 12 h. S. aureus was grown in BHI broth with or without Sal A to an OD600 of 1.0. Then, the bacterial suspension was added to the plate and incubated for 1 h. The bacterial suspension was discarded, and the A549 cells were washed three times with PBS and treated with DMEM containing 300 μg/ml gentamycin. After incubation for 2 h, the plates were washed three times, and the cells were lysed with sterile distilled water. The lysates were diluted 100-fold in PBS and spread onto BHI agar plates in triplicate. The plates were incubated at 37°C for 12 h, and the number of colony-forming unit (CFU) was determined by manual counting.

The target in experiment [4] is T1, SrtA. Nature of the experiment: SrtA activity assay (FRET). The experiment is classed as biochemical, S. aureus. As for the experimental part:
The SrtA activity assay was performed by using FRET as described previously. Briefly, a mixture of 4 μM recombinant SrtA and different concentrations of Sal A in a 300 μl reaction volume (50 mM Tris·HCl, 150 mM NaCl and 5 mM CaCl2, pH 7.5) was incubated for 1 h at 37°C. Then, 10 μM substrate peptide was added and incubated for an additional hour. Wells containing all constituents except SrtA served as blank controls. The fluorescence was measured with a microplate reader at λex = 350 nm and λem = 495 nm.

Experiment [5] has as its system S. aureus USA300. As to the kind of experiment: Pneumonia model, survival. The experiment is classed as in vivo, C57BL/6J mice. The settings on record: mice, 2 × 10^9 CFU i.n.; s.c. 100 mg/kg Sal A and/or 75 mg/kg latamoxef every 12 h, 96 h; PBS control 10%. The protocol: The animal experiments were performed using 6- to 8-week-old female C57BL/6J mice obtained from the Experimental Animal Center of Jilin University and conducted according to the guidelines of the Animal Care and Use Committee of Jilin University. The mouse S. aureus pneumonia model was generated as described previously. Briefly, the mice were anaesthetized with ether and inoculated with 30 μl bacterial resuspension via the left nare. The mice were then held upright to allow the bacteria to be inhaled into the lungs. For the survival assessment, groups of 10 mice were challenged with 2 × 10^9 CFU S. aureus. One hour after intranasal inoculation, the mice were subcutaneously injected with 100 mg/kg of Sal A, 75 mg/kg of latamoxef or 100 mg/kg of Sal A plus 75 mg/kg of latamoxef at 12 h intervals, and survival was assessed for 96 h. For the bacterial load, histopathological, and bronchoalveolar lavage fluid (BALF) experiments, mice were inoculated with 1 × 10^9 CFU S. aureus. The mice were then given a subcutaneous injection of 100 mg/kg Sal A, 75 mg/kg latamoxef or a combination of 100 mg/kg Sal A and 75 mg/kg every 12 h. After 24 h, the left lung of each anaesthetized mouse was aseptically excised and homogenized, and the CFU was determined by serial dilutions. […]

Experiment [6] relates to TNF-α, IL-6, IL-1β. Nature of the experiment: Pneumonia model, cytokines in BALF (ELISA). The experiment is classed as in vivo, C57BL/6J mice. Particulars: mice, 1 × 10^9 CFU i.n.; 100 mg/kg s.c.; 24 h after infection. As for the experimental part:
For the determinations of the levels of TNF-α, IL-6, IL-1β, 24 h after inoculation with bacteria, the lungs of anaesthetized mice were lavaged with a tracheal cannula according to a procedure described previously. The lavage samples were centrifuged for 10 min at 500 × g and 4°C. The supernatant was collected, and the amounts of cytokines were quantified using commercial enzyme-linked immunosorbent assay (ELISA) kits (eBioscience, San Diego, CA) according to the manufacturer’s protocols. All animal experiments were replicated at least twice, with essentially identical results.
In general terms: In an ELISA, binding on a coated surface is turned into a signal by an enzyme label.

The subject of experiment [7] is S. aureus. Nature of the experiment: Anti-S. aureus activity (MIC by broth microdilution, growth curve). The experiment is classed as cell-based. The protocol: The minimum inhibitory concentration (MIC) of Sal A was determined by broth microdilution according to the NCCLS guidelines. Briefly, overnight cultures of S. aureus were diluted 1:100 with fresh Brain Heart Infusion (BHI) medium supplemented with or without 256 μg/ml Sal A and grown at 37°C with shaking. Absorbance readings were obtained at OD600 at different time intervals.
A general note: Broth dilution looks for growth in wells or tubes with falling amounts of substance.

As to `O=C(/C=C/c1ccc(O)c(O)c1/C=C/c1ccc(O)c(O)c1)O[C@H](Cc1ccc(O)c(O)c1)C(=O)O` [Sal A, (2R)-3-(3,4-Dihydroxyphenyl)-2-[(E)-3-[2-[(E)-2-(3,4-dihydroxyphenyl)ethenyl]-3,4-dihydroxyphenyl]prop-2-enoyl]oxypropanoic acid], the inhibition at 256 µg/mL in experiment [1] was 33.1%. For the same compound, in experiment [2], binding was characterised by a dissociation constant (Kd) of 21.5 µM, the koff was determined as 0.0138 s⁻¹ and the kon came to 582 M⁻¹ s⁻¹. For the same compound, the “number of bacteria entering the cells compared to the control group” value in experiment [3] is “significant reduction”. For the same compound, in experiment [4], the IC50 was 11.6 µM. Further, the survival rate in experiment [5] is reported as 80%. Moreover, in experiment [6], the “levels of TNF-α, IL-6, and IL-1β in the BALF compared with the control group” value is “significantly downregulated”. Besides, the “growth of S. aureus” value in experiment [7] (40-fold the IC50 (up to 200 μM), growth curve with 256 μg/ml) is “did not inhibit the growth”. This compound registered an MIC in experiment [7] (Staphylococcus aureus, broth microdilution) of over 1020 µg/mL.

One may read the inhibition as the percentage by which the read-out fell short of the control. Usually Kd stands for the free concentration of one partner at which half of the binding sites on the other are occupied at equilibrium, for simple one-to-one binding. Read a low Kd as tighter binding. In general, koff refers to the rate constant with which the complex falls apart. Read a low koff as a long-lived complex. Usually kon stands for a measure of how fast the partners come together. Read a high kon as faster complex formation. The IC50 is the concentration that inhibits the measured activity by half. Low readings indicate higher potency, high ones lower potency. As usually defined, the MIC is the lowest concentration found to suppress growth. High values mean a less susceptible organism, low ones a more susceptible organism.
